From the supplement of paper PMC13380429

Experiments:
Settings in all cases: 72 h
U2OS [1] = experiment: drug sensitivity score (DSS) for viability; higher = more toxic; extreme values may be limits of the assay
Vero E6 [2] = experiment: as above
Caco-2 [3] = experiment: as above
HepG2 [4] = experiment: as above
Calu-3 [5] = experiment: as above
U2OS [6] = experiment: relative viability EC50 (midpoint between 100% and the lowest measured viability); higher = less toxic
Vero E6 [7] = experiment: as above
Caco-2 [8] = experiment: as above
HepG2 [9] = experiment: as above
Calu-3 [10] = experiment: as above
U2OS [11] = experiment: cell viability relative to DMSO; higher = less toxic
Vero E6 [12] = experiment: as above
Caco-2 [13] = experiment: as above
HepG2 [14] = experiment: as above
Calu-3 [15] = experiment: as above

SMILES | drug sensitivity score (U2OS [1]) | drug sensitivity score (Vero E6 [2]) | drug sensitivity score (Caco-2 [3]) | drug sensitivity score (HepG2 [4]) | drug sensitivity score (Calu-3 [5]) | relative viability EC50 (U2OS [6]) [µM] | relative viability EC50 (Vero E6 [7]) [µM] | relative viability EC50 (Caco-2 [8]) [µM] | relative viability EC50 (HepG2 [9]) [µM] | relative viability EC50 (Calu-3 [10]) [µM] | cell viability (U2OS [11]; 1 nM) [%] | cell viability (U2OS [11]; 10 nM) [%] | cell viability (U2OS [11]; 100 nM) [%] | cell viability (U2OS [11]; 1000 nM) [%] | cell viability (U2OS [11]; 10000 nM) [%] | cell viability (Vero E6 [12]; 1 nM) [%] | cell viability (Vero E6 [12]; 10 nM) [%] | cell viability (Vero E6 [12]; 100 nM) [%] | cell viability (Vero E6 [12]; 1000 nM) [%] | cell viability (Vero E6 [12]; 10000 nM) [%] | cell viability (Caco-2 [13]; 1 nM) [%] | cell viability (Caco-2 [13]; 10 nM) [%] | cell viability (Caco-2 [13]; 100 nM) [%] | cell viability (Caco-2 [13]; 1000 nM) [%] | cell viability (Caco-2 [13]; 10000 nM) [%] | cell viability (HepG2 [14]; 1 nM) [%] | cell viability (HepG2 [14]; 10 nM) [%] | cell viability (HepG2 [14]; 100 nM) [%] | cell viability (HepG2 [14]; 1000 nM) [%] | cell viability (HepG2 [14]; 10000 nM) [%] | cell viability (Calu-3 [15]; 1 nM) [%] | cell viability (Calu-3 [15]; 10 nM) [%] | cell viability (Calu-3 [15]; 100 nM) [%] | cell viability (Calu-3 [15]; 1000 nM) [%] | cell viability (Calu-3 [15]; 10000 nM) [%]
CC(C)Cn1cnc2c1c(=O)n(C)c(=O)n2C [isbufylline] | 0 | 0 | 0 | 0 | 0 | > 10 | > 10 | > 10 | > 10 | > 10 | 98.1 | 96.5 | 98.1 | 97.3 | 93.3 | 92.9 | 95.9 | 91.3 | 104 | 106 | 93.7 | 96.8 | 112 | 115 | 112 | 100 | 99 | 91.7 | 93.7 | 105 | 104 | 88.5 | 101 | 102 | 98.4
O=c1[nH]ccc2cc(OC3CCNCC3)ccc12 | 0 | 0 | 0 | 0 | 0 | > 10 | > 10 | > 10 | > 10 | > 10 | 97.6 | 98.2 | 101 | 96.3 | 94.9 | 97.1 | 101 | 89.6 | 100 | 92 | 89.7 | 96.4 | 99.7 | 100 | 106 | 98.1 | 99.7 | 108 | 112 | 106 | 93.8 | 106 | 111 | 127 | 130
COc1ccc(CN(C(=O)[C@@H](N)Cc2c(C)cc(C(N)=O)cc2C)[C@@H](C)c2ncc(-c3ccccc3)[nH]2)cc1C(=O)O [eluxadoline] | 0 | 0 | 0 | 0 | 0 | > 10 | > 10 | > 10 | > 10 | > 10 | 91.5 | 98.3 | 96.1 | 100 | 98 | 104 | 101 | 94.5 | 98.2 | 103 | 94.1 | 98.2 | 97.6 | 98.5 | 113 | 99.6 | 95.4 | 97.1 | 99.9 | 105 | 96.6 | 105 | 95.1 | 118 | 101
COc1cc(C)[nH]c(=O)c1CNC(=O)c1c(C)n([C@H](C)C2CCOCC2)c2ccccc12 [CPI-360] | 0 | 0 | 0 | 0 | 0 | > 10 | > 10 | > 10 | > 10 | > 10 | 99.7 | 101 | 100 | 102 | 101 | 108 | 102 | 108 | 96.3 | 104 | 107 | 106 | 99.2 | 107 | 95.7 | 107 | 97.6 | 96.7 | 90.7 | 92.2 | 101 | 113 | 101 | 105 | 95.7
